Measured values published in patent US20040002477A1, “Erectile dysfunction remedies containing prostaglandin derivatives as the active ingredient” (priority 2000, published 2004).

Key:
[1] = system: corpus cavernosum; test: Corpus cavernosum relaxation activity in cats (norepinephrine-contracted isolated tissue, Magnus tube); assay type: cell-based; details: cat corpus cavernosum; for Corpus cavernosum relaxation rate: 10 μM norepinephrine contraction = 100%, Means ± SE
Method: Under anesthesia with urethane, penis of five cats (hybrid, weight about 3.5 kg) was removed. In the krebs solution, a corpus cavernosum was isorated, quartered and suspended with the tention of 200 mg in the Magnus tube. 10 μM norepinephrine was added and the tissue was constricted. Then the stable contraction was checked. After the addition of norepinephrine, (5Z, 9β, 11α, 13E)-17,17-propano-11,16-dihydroxy-9-chloro-20-norprosta-5,13-dienic acid·lysine salt (compound A) and (5Z, 9β, 11α, 13E)-17,17-propano-11,16-dihydroxy-9-chloroprosta-5,13,19-trienic acid (compound B), which are the compounds of the formula (I), were added respectively and the changes of the contraction were measured. As controls, PGE1 and 19-hydroxy-PGE2 were used. Each compounds were disolved in DMSO and used. The contraction induced by 10 μM norepinephrine was considered as 100% and the percentages of the relaxation rate were calculated.

[2] = system: human corpus cavernosum; test: Corpus cavernosum relaxation activity in human (noradrenalin-contracted isolated tissue, Magnus tube); assay type: cell-based; details: for Corpus cavernosum relaxation rate: 10 μM noradrenalin contraction = 100%, added cumulatively, Means ± SE
Method: The samples of the human corpus cavernosum taken at the time of operative treatment in agreement of the patient were suspended with the tention of 500 mg in the Magnus tube fulled by glucose-added Krebs buffer. The 10^−5M (10 μM) noradrenalin-induced contraction reaction, acetylcholine-induced relaxation reaction and electrostimulation(EFS)-induced contraction reaction were checked and the samples responded normaly were used in the experiment. It was reconstricted by 10 μM noradrenalin, the compound A used in the present invention of the formula (I) (n=4), the compound B used in the present invention of the formula (I) (n=5) or PGE1 (n=5), which were disolved by DMSO, were added cumulatively and the relaxation reacton was recorded on the chart. The contraction induced by 10 μM noradrenaline was concidered as 100% and the percentage of the relaxation rate was calculated.

[3] = rat, in vivo, iv
Method: It has been confirmed that the compounds used in the present invention of the formula (I) have sufficiently low toxicity and are sufficiently safe for use as pharmaceutical preparations. For example, the maximal tolerated dose of the compound A (lysine salts) in the compound of the formula (I) was 30 mg/kg weight or more for rat intravenous administration.

| Compound | Corpus cavernosum relaxation rate ([1]; dose 0.3 μM) [%] | Corpus cavernosum relaxation rate ([1]; dose 1.0 μM) [%] | Potency relative to PGE1 [2] [times] | Corpus cavernosum relaxation rate ([2]; dose 1.0 μM) [%] | Corpus cavernosum relaxation rate ([2]; dose 10 μM) [%] | Intensity of relaxation compared with PGE1 [1] | Relaxation of corpus cavernosum, dose dependence [1] | Corpus cavernosum relaxation rate ([1]; dose 0.1 μM) [%] | Maximal tolerated dose [3] [mg/kg weight] |
| --- | --- | --- | --- | --- | --- | --- | --- | --- | --- |
| 19-hydroxy-PGE2 [reference compound] | 20.0 ± 4.2 | 27.2 ± 4.7 |  |  |  |  |  |  |  |
| CCC1(C(O)C/C=C/C2C(O)CC(Cl)C2C/C=C\CCCC(=O)O)CCC1.NCCCC[C@H](N)C(=O)O (stereo not drawn) [Compound A, (5Z, 9β, 11α, 13E)-17,17-propano-11,16-dihydroxy-9-chloro-20-norprosta-5,13-dienic acid·lysine salt] |  | 35.2 ± 2.8 | 1.6 | 29.9 ± 13.7 | 44.5 ± 12.6 | at the same level as PGE1 | dose-dependent relaxasions | 26.8 ± 4.2 | ≥ 30 |
| C=CCC1(C(O)C/C=C/[C@@H]2[C@@H](C/C=C\CCCC(=O)O)[C@H](Cl)C[C@H]2O)CCC1 (stereo partly drawn) [Compound B, (5Z, 9β, 11α, 13E)-17,17-propano-11,16-dihydroxy-9-chloroprosta-5,13,19-trienic acid] |  | 36.8 ± 4.2 | 1.6 | 25.0 ± 4.4 | 45.3 ± 4.5 | at the same level as PGE1 | dose-dependent relaxasions | 18.1 ± 4.8 |  |
| CCCCC[C@H](O)/C=C/[C@H]1[C@H](O)CC(=O)[C@@H]1CCCCCCC(=O)O [PGE1, prostaglandin E1, reference compound] |  | 35.5 ± 5.0 |  | 16.8 ± 7.2 | 27.9 ± 8.8 |  |  | 21.3 ± 2.3 |  |
